Assay results reported in ChEMBL document CHEMBL1201862, “PubChem BioAssay data set” (2004).
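Following 48 hours of exposure in 96-well plates, responses at five concentrations were used to interpolate endpoints linearly. GI50 = concentration required for 50% inhibition of growth.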 Activity calls are given as the source filed them. No stated cut-off is given here; in the data, active = GI50 up to about 1.1 µM and inactive = higher.

Key:
Assay in all cases: NCI-60 cell line screen, 48 h
NCI-H460 = tested on: NCI-H460
ACHN = tested on: ACHN
COLO 205 = tested on: COLO 205
SF-295 = tested on: SF-295
EKVX = tested on: EKVX
NCI/ADR-RES = tested on: NCI/ADR-RES
K562 = tested on: K562
CCRF-CEM = tested on: CCRF-CEM
IGROV-1 = tested on: IGROV-1
A498 = tested on: A498
A549 = tested on: A549
MCF7 = tested on: MCF7
MDA-MB-435 = tested on: MDA-MB-435
SN12C = tested on: SN12C
Malme-3M = tested on: Malme-3M
MDA-MB-231 = tested on: MDA-MB-231
HCC 2998 = tested on: HCC 2998
UACC-62 = tested on: UACC-62
LOX IMVI = tested on: LOX IMVI
SNB-19 = tested on: SNB-19
SK-MEL-5 = tested on: SK-MEL-5
SK-MEL-28 = tested on: SK-MEL-28
HCT-116 = tested on: HCT-116
PC-3 = tested on: PC-3
RPMI-8226 = tested on: RPMI-8226
MDA-N = tested on: MDA-N
HCT-15 = tested on: HCT-15
SK-OV-3 = tested on: SK-OV-3
UO-31 = tested on: UO-31
TK-10 = tested on: TK-10
SNB-75 = tested on: SNB-75
UACC-257 = tested on: UACC-257
HT-29 = tested on: HT-29
Hs-578T = tested on: Hs-578T
RXF 393 = tested on: RXF 393
HL-60 = tested on: HL-60
SK-MEL-2 = tested on: SK-MEL-2
BT-549 = tested on: BT-549
SR = tested on: SR
MOLT-4 = tested on: MOLT-4
M14 = tested on: M14
NCI-H226 = tested on: NCI-H226
CAKI-1 = tested on: CAKI-1
NCI-H522 = tested on: NCI-H522
OVCAR-8 = tested on: OVCAR-8
DU-145 = tested on: DU-145
SW-620 = tested on: SW-620
KM12 = tested on: KM12
OVCAR-4 = tested on: OVCAR-4
SF-268 = tested on: SF-268
OVCAR-3 = tested on: OVCAR-3
SF-539 = tested on: SF-539
OVCAR-5 = tested on: OVCAR-5
NCI-H23 = tested on: NCI-H23
U-251 = tested on: U-251
786-0 = tested on: 786-0
HOP-92 = tested on: HOP-92
T47D = tested on: T47D

Measured: GI50

C=C1C(C(O)C[C@H](C)C2O[C@@]3(CCCCO3)CCC2C)O[C@@H]2CCC3(CCC(/C=C/[C@@H](C)C4CC(C)=CC5(O4)O[C@H](C[C@](C)(O)C(=O)O)CCC5O)O3)OC2[C@@H]1O (stereo partly drawn)
< 16.3 nM: HCT-15
active: NCI-H460 4.08 nM | ACHN 19.1 nM | COLO 205 3.76 nM | SF-295 5.78 nM | EKVX 6.14 nM | NCI/ADR-RES 128 nM | K562 4.29 nM | CCRF-CEM 8.26 nM | IGROV-1 21.7 nM | A498 5.64 nM | A549 26.7 nM | MCF7 6.5 nM | MDA-MB-435 0.75 nM | SN12C 12.7 nM | Malme-3M 0.764 nM | MDA-MB-231 4.11 nM | HCC 2998 1.71 nM | UACC-62 3.47 nM | LOX IMVI 4 nM | SNB-19 2.7 nM | SK-MEL-5 3.08 nM | SK-MEL-28 2.27 nM | HCT-116 3.81 nM | PC-3 5.45 nM | RPMI-8226 3.15 nM | MDA-N 1.17 nM | SK-OV-3 9.55 nM | UO-31 52.7 nM | TK-10 16.2 nM | SNB-75 0.608 nM | UACC-257 8.39 nM | HT-29 8.28 nM | Hs-578T 3.18 nM | RXF 393 18 nM | HL-60 4.08 nM | SK-MEL-2 2.53 nM | BT-549 6.81 nM | SR 9.64 nM | MOLT-4 12.2 nM | M14 1.76 nM | NCI-H226 4.05 nM | CAKI-1 10.7 nM | NCI-H522 1.82 nM | OVCAR-8 6.93 nM | DU-145 9.08 nM | SW-620 13.4 nM | KM12 3.74 nM | OVCAR-4 28.6 nM | SF-268 3.35 nM | OVCAR-3 2.39 nM | SF-539 2.54 nM | OVCAR-5 8.26 nM | NCI-H23 8.19 nM | U-251 1.05 nM | 786-0 9.12 nM | HOP-92 3.75 nM | T47D 32.6 nM
